Values quoted from earlier work in patent US20150315247A1, “High-affinity peptide-based anticancer vaccination to overcome tumor resistance to immunostimulatory antibodies and to identify TCRs that can be used successfully in adoptive T cell therapy” (priority 2014, published 2015).

Target: T1, H-2K^b (mouse MHC) (Mus musculus, UniProt P01901)
T1 sequence (P01901 22-369): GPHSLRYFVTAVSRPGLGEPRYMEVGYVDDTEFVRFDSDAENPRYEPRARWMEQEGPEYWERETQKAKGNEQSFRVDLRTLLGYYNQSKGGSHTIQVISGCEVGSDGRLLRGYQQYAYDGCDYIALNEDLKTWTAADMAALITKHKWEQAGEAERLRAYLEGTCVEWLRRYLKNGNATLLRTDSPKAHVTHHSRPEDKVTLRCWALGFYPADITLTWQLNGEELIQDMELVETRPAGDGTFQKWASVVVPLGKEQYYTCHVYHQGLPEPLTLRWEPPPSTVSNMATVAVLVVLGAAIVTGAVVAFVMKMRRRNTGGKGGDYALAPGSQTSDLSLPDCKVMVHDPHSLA
T1 sequence (P01887 21-119 partner): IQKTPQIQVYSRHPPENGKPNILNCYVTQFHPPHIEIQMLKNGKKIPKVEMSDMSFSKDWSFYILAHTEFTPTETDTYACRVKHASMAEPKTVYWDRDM
Settings: SIINFEKL peptide binding to H-2K^b; read-out: peptide-H-2K^b affinity IC50

Sequence: SIINFEKL [SIINFEKL peptide]
- IC50: 0.9 nM
